# Results as given in patent US9949479B2 (priority 2015, dated 2018).
# Several values for one entry are separate records, joined by “and”; a condition that tells them apart may be missing. Equal entries are not always repeated. Where two headings read alike, the source gives them in different places.
# Legend:
# wheat scab [1] = format: in vivo, Fusarium spp.
# wheat scab [2] = format: in vivo, Fusarium spp.; conditions: Serial 6: preparation 100; jinggangmycin 0, metconazole 20 g ai./mu
# [3] = parameters: species or system wheat; conditions: in vivo
# rust [4] = format: in vivo
# leaf blight [5] = format: in vivo; conditions: Serial 6: preparation 100; jinggangmycin 0, metconazole 20 g ai./mu
# powdery mildew [6] = format: in vivo
# Fusarium graminearum = assay: microbe, parasite or virus in culture; format: cell-based
# [7] = parameters: species or system wheat; conditions: in vivo; remark: listed apart in the source
# powdery mildew fungus = format: in vivo; conditions: seed treatment; dose as in E133
# leaf blight [8] = format: in vivo
# powdery mildew [9] = format: in vivo; conditions: Serial 6: preparation 100; jinggangmycin 0, metconazole 20 g ai./mu
# rust [10] = format: in vivo; conditions: dose as in E154
# wheat scab [11] = format: in vivo, Fusarium spp.; conditions: Serial 6: preparation 100 g/mu; jinggangmycin 0, metconazole 20 g ai./mu
# powdery mildew [12] = format: in vivo; conditions: Serial 6: preparation 100 g/mu; jinggangmycin 0, metconazole 20 g ai./mu
# rust [13] = format: in vivo; remark: listed apart in the source
# powdery mildew [14] = format: in vivo; remark: listed apart in the source
# leaf blight [15] = format: in vivo; remark: listed apart in the source
# rust [16] = format: in vivo; conditions: Serial 6: preparation 100 g/mu; jinggangmycin 0, metconazole 20 g ai./mu
# [17] = tested on: DON toxin biosynthesis of carbendazim-resistant fusarium asiaticum; assay: microbe, parasite or virus in culture; format: cell-based
# powdery mildew [18] = format: in vivo; remark: listed apart in the source
# Fusarium asiaticum = assay: microbe, parasite or virus in culture; format: cell-based
# rust [19] = format: in vivo; conditions: dose as in E145
# wheat scab [20] = format: in vivo, Fusarium spp.; remark: listed apart in the source
# [21] = format: in vivo, wheat; conditions: dose as in E162
# leaf blight [22] = format: in vivo; conditions: Serial 6: preparation 100 g/mu; jinggangmycin 0, metconazole 20 g ai./mu
# [23] = format: in vivo, barley; conditions: dose as in E154
# powdery mildew [24] = format: in vivo; remark: listed apart in the source
# [25] = format: in vivo, wheat
# leaf blight [26] = format: in vivo; conditions: dose as in E154
# rust [27] = format: in vivo; conditions: Serial 6: preparation 100; jinggangmycin 0, metconazole 20 g ai./mu
# wheat scab [28] = format: in vivo, Fusarium spp.; remark: listed apart in the source
# [29] = Serial 10: preparation 30 g/mu, metconazole 6 g ai./mu alone
# [30] = Serial 11: preparation 22.5 g/mu, metconazole 4.5 g ai./mu alone
# [31] = Serial 12: preparation 15 g/mu, metconazole 3 g ai./mu alone
# [32] = Serial 8: preparation 50 g/mu, metconazole 10 g ai./mu alone
# [33] = Serial 9: preparation 37.5 g/mu, metconazole 7.5 g ai./mu alone
# [34] = Serial 10: preparation 15 g/mu, metconazole 3 g ai./mu alone
# [35] = Serial 21: metconazole 20 g ai./mu alone
# [36] = Serial 22: metconazole 18 g ai./mu alone
# [37] = Serial 23: metconazole 16 g ai./mu alone
# [38] = Serial 24: metconazole 10 g ai./mu alone
# [39] = Serial 25: metconazole 9 g ai./mu alone
# [40] = Serial 26: metconazole 8 g ai./mu alone
# [41] = Serial 27: metconazole 6 g ai./mu alone
# [42] = Serial 28: metconazole 3 g ai./mu alone
# [43] = Fusarium graminearum, read-out: Growth Inhibition Rate F.g
# [44] = Serial 9: preparation 100 g/mu, metconazole 20 g ai./mu alone
# [45] = Serial 10: preparation 80 g/mu, metconazole 16 g ai./mu alone
# [46] = Serial 11: preparation 40 g/mu, metconazole 8 g ai./mu alone
# [47] = Serial 12: preparation 20 g/mu, metconazole 4 g ai./mu alone
# [48] = Fusarium asiaticum, read-out: Growth Inhibition Rate F.a
smiles,measurement,setting,value
CC1(C)CCC(Cc2ccc(Cl)cc2)C1(O)Cn1cncn1 (stereo not shown) [Metconazole],Disease Index Prevention Effect % Head Blight,wheat scab [1]; [29],52.3%
same,Disease Index Prevention Effect % Head Blight,wheat scab [1]; [30],49.6%
same,Disease Index Prevention Effect % Head Blight,wheat scab [1]; [31],28.6%
same,Disease Index Prevention Effect % Head Blight,wheat scab [2],82.4%
same,Thousand Kernel Weight,[3],42.8 g and 41.8 g and 42.0 g and 39.2 g
same,Disease Index Prevention Effect % Rust,rust [4]; [32],84.4%
same,Disease Index Prevention Effect % Rust,rust [4]; [33],77.3%
same,Disease Index Prevention Effect % Rust,rust [4]; [34],70.6%
same,Disease Index Prevention Effect % Leaf Blight,leaf blight [5],80.6%
same,Disease Index Prevention Effect % Powdery Mildew,powdery mildew [6]; [35],80.1%
same,Disease Index Prevention Effect % Powdery Mildew,powdery mildew [6]; [36],74.6%
same,Disease Index Prevention Effect % Powdery Mildew,powdery mildew [6]; [37],71.4%
same,Disease Index Prevention Effect % Powdery Mildew,powdery mildew [6]; [38],63.4%
same,Disease Index Prevention Effect % Powdery Mildew,powdery mildew [6]; [39],60.8%
same,Disease Index Prevention Effect % Powdery Mildew,powdery mildew [6]; [40],58.6%
same,Disease Index Prevention Effect % Powdery Mildew,powdery mildew [6]; [41],51.8%
same,Disease Index Prevention Effect % Powdery Mildew,powdery mildew [6]; [42],26.4%
same,ED50,Fusarium graminearum; F.g sensitive strains,0.117 µg/mL
same,inhibition at 0.0625 µg/mL,Fusarium graminearum; [43],30.7%
same,inhibition at 0.125 µg/mL,Fusarium graminearum; [43],58.5%
same,inhibition at 0.25 µg/mL,Fusarium graminearum; [43],75.7%
same,inhibition at 0.5 µg/mL,Fusarium graminearum; [43],89.1%
same,inhibition at 1 µg/mL,Fusarium graminearum; [43],96%
same,inhibition at 0.1 µg/mL,"Fusarium graminearum; Fusarium graminearum, read-out: inhibition rate on the hyphal growth of the head blight fungi",~50%
same,Average Fungal Colony Diameter F.g,"Fusarium graminearum; Metconazole 0.0625 μg/mL, sensitive strains",52.1 mm
same,Average Fungal Colony Diameter F.g,"Fusarium graminearum; Metconazole 0.125 μg/mL, sensitive strains",31.2 mm
same,Average Fungal Colony Diameter F.g,"Fusarium graminearum; Metconazole 0.25 μg/mL, sensitive strains",18.3 mm
same,Average Fungal Colony Diameter F.g,"Fusarium graminearum; Metconazole 0.5 μg/mL, sensitive strains",8.2 mm
same,Average Fungal Colony Diameter F.g,"Fusarium graminearum; Metconazole 1.0 μg/mL, sensitive strains",3.0 mm
same,activity of metconazole relative to carbendazim (ED50),Fusarium graminearum; sensitive strains,about four times
same,activity of metconazole relative to phenamacril (ED50),Fusarium graminearum; sensitive strains,about 1.5 times
same,Thousand Kernel Weight,[7],43.4 g and 42.8 g and 42.4 g and 40.4 g
same,Incidence Prevention Effect % Powdery Mildew,powdery mildew fungus,75.0% and 68.5% and 61.0% and 40.0%
same,Disease Index Prevention Effect % Leaf Blight,leaf blight [8]; [44],72.8%
same,Disease Index Prevention Effect % Leaf Blight,leaf blight [8]; [45],70.6%
same,Disease Index Prevention Effect % Leaf Blight,leaf blight [8]; [46],68.3%
same,Disease Index Prevention Effect % Leaf Blight,leaf blight [8]; [47],50.8%
same,Disease Index Prevention Effect % Powdery Mildew,powdery mildew [9],78.2%
same,Disease Index Prevention Effect % Rust,rust [10],63.0% and 68.2% and 76.1% and 88.2%
same,Disease Index Prevention Effect % Head Blight,wheat scab [11],83.4%
same,Disease Index Prevention Effect % Powdery Mildew,powdery mildew [12],98.2%
same,Disease Index Prevention Effect % Rust,rust [13]; [35],91.2%
same,Disease Index Prevention Effect % Rust,rust [13]; [36],88.4%
same,Disease Index Prevention Effect % Rust,rust [13]; [37],85.6%
same,Disease Index Prevention Effect % Rust,rust [13]; [38],82.1%
same,Disease Index Prevention Effect % Rust,rust [13]; [39],82.4%
same,Disease Index Prevention Effect % Rust,rust [13]; [40],79.4%
same,Disease Index Prevention Effect % Rust,rust [13]; [41],72.6%
same,Disease Index Prevention Effect % Rust,rust [13]; [42],30.2%
same,Disease Index Prevention Effect % Powdery Mildew,powdery mildew [14]; [44],83.2%
same,Disease Index Prevention Effect % Powdery Mildew,powdery mildew [14]; [45],75.4%
same,Disease Index Prevention Effect % Powdery Mildew,powdery mildew [14]; [46],69.2%
same,Disease Index Prevention Effect % Powdery Mildew,powdery mildew [14]; [47],60.6%
same,Disease Index Prevention Effect % Leaf Blight,leaf blight [15]; [32],72.8%
same,Disease Index Prevention Effect % Leaf Blight,leaf blight [15]; [33],70.6%
same,Disease Index Prevention Effect % Leaf Blight,leaf blight [15]; [34],68.3%
same,Disease Index Prevention Effect % Rust,rust [16],100%
same,DON Biosynthesis Inhibition Rate,[17],0.66% and −0.34%
same,Toxin Production Capability,[17],87.42 μgDON/g by dry weight of hyphae and 52.50 μgDON/g by dry weight of hyphae
same,Disease Index Prevention Effect % Powdery Mildew,powdery mildew [18]; [29],60.6%
same,Disease Index Prevention Effect % Powdery Mildew,powdery mildew [18]; [30],58.6%
same,Disease Index Prevention Effect % Powdery Mildew,powdery mildew [18]; [31],45.1%
same,ED50,Fusarium asiaticum,0.114 µg/mL and 0.112 µg/mL and 0.116 µg/mL
same,inhibition at 0.0625 µg/mL,Fusarium asiaticum; [48],30.7%
same,inhibition at 0.125 µg/mL,Fusarium asiaticum; [48],58.6%
same,inhibition at 0.25 µg/mL,Fusarium asiaticum; [48],75.6%
same,inhibition at 0.5 µg/mL,Fusarium asiaticum; [48],89.2%
same,inhibition at 1 µg/mL,Fusarium asiaticum; [48],95.9%
same,Disease Index Prevention Effect % Rust,rust [19],83.8% and 78.4% and 66.7% and 41.9%
same,Disease Index Prevention Effect % Head Blight,wheat scab [20]; [32],75.6%
same,Disease Index Prevention Effect % Head Blight,wheat scab [20]; [34],39.1%
same,Grain Toxin Content,[21],2.01 μg/g of kernels and 2.24 μg/g of kernels and 2.38 μg/g of kernels and 2.94 μg/g of kernels
same,Disease Index Prevention Effect % Leaf Blight,leaf blight [22],84.6%
same,Grain Toxin Content,[23],3.86 mg of DON/Kg of grain and 3.70 mg of DON/Kg of grain and 3.09 mg of DON/Kg of grain and 3.26 mg of DON/Kg of grain
same,Toxin Reduction Percentage %,[23]; vs control,54.7% and 56.6% and 63.8% and 61.8%
same,Disease Index Prevention Effect % Powdery Mildew,powdery mildew [24]; [32],83.2%
same,Disease Index Prevention Effect % Powdery Mildew,powdery mildew [24]; [34],69.2%
same,Grain Toxin Content (mg of DON/Kg of grain),[25]; [35],1.11 mg of DON/Kg of grain
same,Rate of Decrease in Toxin Content in Grains (%),[25]; [35],82.8%
same,Grain Toxin Content (mg of DON/Kg of grain),[25]; [36],0.99 mg of DON/Kg of grain
same,Rate of Decrease in Toxin Content in Grains (%),[25]; [36],84.7%
same,Grain Toxin Content (mg of DON/Kg of grain),[25]; [37],1.08 mg of DON/Kg of grain
same,Rate of Decrease in Toxin Content in Grains (%),[25]; [37],83.3%
same,Grain Toxin Content (mg of DON/Kg of grain),[25]; [38],1.34 mg of DON/Kg of grain
same,Rate of Decrease in Toxin Content in Grains (%),[25]; [38],79.3%
same,Grain Toxin Content (mg of DON/Kg of grain),[25]; [39],1.56 mg of DON/Kg of grain
same,Rate of Decrease in Toxin Content in Grains (%),[25]; [39],75.9%
same,Grain Toxin Content (mg of DON/Kg of grain),[25]; [40],1.61 mg of DON/Kg of grain
same,Rate of Decrease in Toxin Content in Grains (%),[25]; [40],75.1%
same,Grain Toxin Content (mg of DON/Kg of grain),[25]; [41],1.89 mg of DON/Kg of grain
same,Rate of Decrease in Toxin Content in Grains (%),[25]; [41],70.7%
same,Grain Toxin Content (mg of DON/Kg of grain),[25]; [42],3.22 mg of DON/Kg of grain
same,Rate of Decrease in Toxin Content in Grains (%),[25]; [42],50.2%
same,Disease Index Prevention Effect % Leaf Blight,leaf blight [26],56.2% and 70.4% and 73.7% and 80.0%
same,Disease Index Prevention Effect % Rust,rust [27],85.0%
same,Disease Index Prevention Effect % Head Blight,wheat scab [28]; [35],75.1%
same,Disease Index Prevention Effect % Head Blight,wheat scab [28]; [36],74.9%
same,Disease Index Prevention Effect % Head Blight,wheat scab [28]; [37],73.2%
same,Disease Index Prevention Effect % Head Blight,wheat scab [28]; [38],70.1%
same,Disease Index Prevention Effect % Head Blight,wheat scab [28]; [39],67.2%
same,Disease Index Prevention Effect % Head Blight,wheat scab [28]; [40],65.1%
same,Disease Index Prevention Effect % Head Blight,wheat scab [28]; [41],54.8%
same,Disease Index Prevention Effect % Head Blight,wheat scab [28]; [42],28.3%
